Assay [1] deals with Penicillinresistant S. aureus. The assay is described as follows: MIC, two-fold serial agar dilution in Mueller-Hinton agar, group (G+)-Ib. It counts as cell-based. The conditions noted are these: Staphylococcus aureus, penicillin-resistant S. aureus, 5 strains, read-out: Geometric Mean of MIC, (G+)-Ib. On the procedure: (§1) In the primary evaluation of the compounds of this invention, the Minimum Inhibitory Concentrations (MIC's) of the compounds were determined by the two-fold serial agar dilution method in Mueller-Hinton agar against 32 strains of test organisms in six groups.
(G+)Ib: Penicillinresistant S. aureus (5
A general note: In agar dilution the substance is mixed into plates at graded concentrations.

Assay [2] concerns Penicillinsensitive S. aureus. In words: MIC, two-fold serial agar dilution in Mueller-Hinton agar, group (G+)-Ia. It counts as cell-based. The conditions noted are these: Staphylococcus aureus, penicillin-sensitive S. aureus, 5 strains, read-out: Geometric Mean of MIC, (G+)-Ia. As for the experimental part:
as §1

The test system of assay [3] is M. morganii, Ent. cloacae and Ser. marcescens. In words: MIC, two-fold serial agar dilution in Mueller-Hinton agar, group (G-)-II. To be noted: 5 strains, read-out: Geometric Mean of MIC, (G-)-II. It counts as cell-based. On the procedure: as §1
(G-)II: M. morganii (1 strain), Ent. cloacae (2 strains) andSer.

Assay [4] has as its system Cephalothinsensitive E. coli, Kl. pneumoniae and Pr. mirabilis. In words: MIC, two-fold serial agar dilution in Mueller-Hinton agar, group (G-)-Ia. Type of assay: cell-based. To be noted: cephalothin-sensitive E. coli, 5 strains, read-out: Geometric Mean of MIC, (G-)-Ia. As for the experimental part:
as §1
(G-)Ia: Cephalothinsensitive E. coli (2 strains), Kl. pneumoniae (1
strain) and Pr. mirabilis (2 strains)

The test system of another assay is Ps. aeruginosa. The assay is described as follows: MIC, two-fold serial agar dilution in Mueller-Hinton agar, group (G-)-III. Type of assay: cell-based. The conditions noted are these: Pseudomonas aeruginosa, 7 strains, read-out: Geometric Mean of MIC, (G-)-III. On the procedure: as §1
(G-)III: Ps. aeruginosa (7 strains)

Assay [5] concerns Cephalothinresistant E. coli and Kl. pneumoniae. In words: MIC, two-fold serial agar dilution in Mueller-Hinton agar, group (G-)-Ib. It counts as cell-based, E. coli (3 strains) and Kl. pneumoniae (3 strains). The conditions noted are these: read-out: Geometric Mean of MIC, (G-)-Ib. As for the experimental part: as §1
(G-)Ib: Cephalothinresistant E. coli (3 strains) and Kl. pneumoniae (3

For orientation: MIC means the lowest concentration that inhibits growth of the organism.

Each structure is given as a SMILES string. Converted amounts (≈) assume the structure as drawn.

On to `Nc1nc(/C(=N/OC2(C(=O)O)CCC2)C(=O)NC2C(=O)N3C(C(=O)[O-])=C(/C=C/C[n+]4ccc5sc(N)nc5c4)CS[C@H]23)cs1` (stereo partly drawn) [Compound I-5C, 7-[(Z)-2-(2-Aminothiazol-4-yl)-2-(1-carboxycyclobut-1-oxyimino)acetamido]-3-[(E)-3-(2-amino-5-thiazolo[4,5-c]pyridinio)-1-propen-1-yl]-3-cephem-4-carboxylate], for which the MIC in assay [1] came to 4.4 µg/mL (≈ 6.7 µM); in assay [2], 1.3 µg/mL (≈ 1.98 µM); in assay [3] it was 0.14 µg/mL (≈ 0.213 µM); in assay [4], 0.015 µg/mL (≈ 0.0228 µM); with Ps. aeruginosa, 2.7 µg/mL (≈ 4.11 µM); in assay [5] it was 0.15 µg/mL (≈ 0.228 µM).

For `C[N+]1(C/C=C/C2=C(C(=O)[O-])N3C(=O)C(NC(=O)/C(=N\OC4(C(=O)O)CCC4)c4csc(N)n4)[C@H]3SC2)CC=CC1` (stereo partly drawn) [Compound I-5F, 7-[(Z)-2-(2-Aminothiazol-4-yl)-2-(1-carboxycyclobut-1-oxyimino)acetamido]-3-[(E)-3-(1-methyl-3-pyrrolinio)-1-propen-1-yl]-3-cephem-4-carboxylate], the MIC amounted to 4 µg/mL (≈ 6.8 µM) in assay [1]; 1.5 µg/mL (≈ 2.55 µM) in assay [2]; 0.17 µg/mL (≈ 0.289 µM) in assay [3]; 0.037 µg/mL (≈ 0.0629 µM) in assay [4]; 2.4 µg/mL (≈ 4.08 µM) with Ps. aeruginosa; 0.22 µg/mL (≈ 0.374 µM) in assay [5].

On to `Nc1cc[n+](C/C=C/C2=C(C(=O)[O-])N3C(=O)C(NC(=O)/C(=N\OC4(C(=O)O)CCC4)c4csc(N)n4)C3SC2)cc1` (stereo not drawn) [Compound I-5I, 7-[(Z)-2-(2-Aminothiazol-4-yl)-2-(1-carboxycyclobut-1-oxyimino)acetamido]-3-[(E)-3-(4-aminopyridino)-1-propen-1-yl]-3-cephem-4-carboxylate], for which the MIC in assay [1] was determined as 4.7 µg/mL (≈ 7.84 µM); in assay [2] it was 1.6 µg/mL (≈ 2.67 µM); in assay [3], 0.22 µg/mL (≈ 0.367 µM); in assay [4] it was 0.019 µg/mL (≈ 0.0317 µM); in the assay with Ps. aeruginosa it was 3.5 µg/mL (≈ 5.84 µM); in assay [5], 0.2 µg/mL (≈ 0.334 µM).

(Values after patent US4486586A, “Cephalosporin derivatives” (Bristol-Myers Company, priority 1983, dated 1984).)
